From paper PMC3929664, “A Panel of Diverse Assays to Interrogate the Interaction between Glucokinase and Glucokinase Regulatory Protein, Two Vital Proteins in Human Disease” (PLoS ONE, 2014)
Structures can show the parent of a compound that is named as a salt.

Target: T1, GCK enzymatic reaction inhibited by GKRP (recombinant human GCK and GKRP) (Homo sapiens, UniProt P35557+Q14397)
T1 construct: made in house
T1 sequence (P35557 1-465): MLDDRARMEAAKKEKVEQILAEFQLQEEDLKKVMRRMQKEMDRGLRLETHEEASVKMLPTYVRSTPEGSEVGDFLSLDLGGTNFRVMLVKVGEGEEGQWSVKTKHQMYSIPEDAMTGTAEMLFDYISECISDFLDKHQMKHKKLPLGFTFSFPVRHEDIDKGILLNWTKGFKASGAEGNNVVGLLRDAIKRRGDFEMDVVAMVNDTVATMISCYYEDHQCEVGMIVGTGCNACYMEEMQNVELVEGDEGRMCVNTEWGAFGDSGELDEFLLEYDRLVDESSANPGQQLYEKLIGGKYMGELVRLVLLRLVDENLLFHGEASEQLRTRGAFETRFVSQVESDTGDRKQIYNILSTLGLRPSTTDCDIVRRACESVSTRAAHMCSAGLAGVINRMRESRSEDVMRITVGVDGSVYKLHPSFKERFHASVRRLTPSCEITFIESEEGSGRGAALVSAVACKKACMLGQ
T1 sequence (Q14397 1-625): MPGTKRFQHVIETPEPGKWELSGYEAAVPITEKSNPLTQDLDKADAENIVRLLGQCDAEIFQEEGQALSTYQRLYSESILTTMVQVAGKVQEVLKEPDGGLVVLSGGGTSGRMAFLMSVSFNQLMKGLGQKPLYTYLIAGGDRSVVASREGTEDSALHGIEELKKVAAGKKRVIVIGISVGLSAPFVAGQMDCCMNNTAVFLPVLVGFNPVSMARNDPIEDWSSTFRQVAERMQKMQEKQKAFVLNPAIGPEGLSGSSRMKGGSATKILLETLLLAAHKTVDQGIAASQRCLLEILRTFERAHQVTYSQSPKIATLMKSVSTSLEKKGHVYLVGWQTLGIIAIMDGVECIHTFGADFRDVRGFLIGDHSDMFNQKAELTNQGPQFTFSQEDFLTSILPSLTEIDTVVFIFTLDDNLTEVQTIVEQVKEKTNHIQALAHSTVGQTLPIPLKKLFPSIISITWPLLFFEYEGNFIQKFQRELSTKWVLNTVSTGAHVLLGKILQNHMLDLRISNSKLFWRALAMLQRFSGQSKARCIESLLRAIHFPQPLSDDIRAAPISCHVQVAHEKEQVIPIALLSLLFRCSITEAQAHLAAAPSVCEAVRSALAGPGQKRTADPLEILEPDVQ
Test: Bioluminescence assay (ADP-Glo) of the GCK enzyme reaction with GKRP
Type: biochemical
Conditions: for LOPAC1280 screen outcome: 2 µM S6P; for response across formats (ADP only, GCK only, GCK-GKRP): 0.04 mM ADP, 4 nM GCK, 15 nM GCK with 15 nM GKRP
Procedure: A luminescence-based assay was developed for detection of ADP generation by recombinant GST-GCK (ADP-Glo™ Kinase Assay; Promega). Final reaction conditions included 25 mM HEPES, 25 mM KCl, 2 mM MgCl2, 1 mM DTT, 0.025% BSA, 0.01% Tween-20, 5 mM glucose, and concentrations of GST-GCK and FLAG-GKRP as indicated, and the reaction was initiated by addition of ATP to a final concentration of 0.4 mM. The reaction was terminated and luminescence generated using ADP-Glo™ Reagent and Kinase Detection Reagent (both Promega). In 1536-well plate format, luminescence enzyme assay buffer was dispensed (2 µl/well) using a BioRAPTR into white 1536-well medium binding plates and initiated by addition of 1 µl 1.2 mM ATP. After lidded incubation for the times indicated at room temperature, 2.5 µl of ADP-Glo™ Reagent was added to each well and plates were incubated with lidding for 60 minutes at room temperature. Following 5 µl addition per well of Kinase Detection Reagent, plates were incubated with lidding for a further 30 minutes at room temperature before luminescent detection using a ViewLux Microplate Imager (PerkinElmer). For the LOPAC^1280 library screen, column 1 was all components with DMSO (maximum signal) and column 3 was no GCK with DMSO (minimum signal). These two control columns were used for data normalization. The final HTS protocol is in Table S3, and the data have been deposited in PubChem (AID 743206).
S6P, F1P, and glucose were dissolved in water; GKAs were dissolved in DMSO.
The firefly luciferase enzyme utilizes luciferin and ATP to generate bioluminescence, and the coupling of ATP-dependent kinases to luciferase activity has enabled kinase activity to be measured quantitatively by luminescence measurements in high-throughput screens. The ADP-Glo™ assay, utilizing a two-step luciferase-based ADP-detection protocol, was employed to measure GCK activity ( Figure 1C ). Initial validation was carried out in 384-well plate format, and focused on GCK in the absence of GKRP to test suitability of the ADP-Glo™ format for the GCK enzyme. A titration of 14 GCK concentrations (1.5–100 nM; n = 8 for each concentration) was assessed at 5 mM glucose and 0.4 mM ATP at pH 7.4. The reaction was incubated for 45 minutes at room temperature. To estimate percent conversion of ATP to ADP, mixtures of ATP and ADP (total concentration 0.4 mM) were tested in duplicate, containing 0, 3, 5, 10, 30, 50, 70, and 100% ADP. The luminescence value at 10% ADP corresponded to the luminescence generated by 4 nM GCK (Figure S7). The ADP-Glo™ kit is linear throughout the range tested and provides an excellent range of detection.
The effects of GKRP inhibition were then assessed using the same reaction conditions at pH 7.1. ADP generation was measured using a matrix of five concentrations each of GCK and GKRP (0, 5, 10, 15, and 20 nM) in quadruplicate ( Figure 5A ). Reactions were incubated for 75 minutes. Luminescence of 15 nM GCK was reduced by approximately 60% by 15 nM GKRP, and the mean S/B at 15 nM GCK +15 nM GKRP was 3.7.
Accordingly, the bioluminescence reaction was capable of measuring GCK enzymatic activity and its inhibition by GKRP. We therefore pursued miniaturization of the assay to 1536-well plate format and tested the effects of S6P and F1P in three different assay formats: 0.04 mM ADP in the absence of GCK and GKRP, 4 nM GCK, and 15 nM GCK with 15 nM GKRP ( Figure 5B ). All assays provided robust luminescence signal in the absence of F1P or S6P (S/B >4.0).

EC50 (15 nM GCK, 15 nM GKRP, 75 minutes, mean ± SD, read-out: EC50 (activation of GCK enzymatic reaction, increase in luminescence)) [nM] | response across formats (ADP only, GCK only, GCK-GKRP) | IC50 (15 nM GCK, 15 nM GKRP, 75 minutes, mean ± SD, read-out: IC50 (decrease in luminescence)) [nM] | SMILES | LOPAC1280 screen outcome (15 nM GCK, 15 nM GKRP)
– | – | – | O=C(O)C1=CC(=C(c2ccc(O)c(C(=O)O)c2)c2ccc(O)c(C(=O)O)c2)C=CC1=O [ATA, aurintricarboxylic acid] | inhibitors of the GCK-GKRP interaction
1000 ± 200 | dependent on the presence of GKRP | – | O=C(COP(=O)(O)O)[C@@H](O)[C@H](O)[C@H](O)CO [F1P, fructose 1-phosphate] | –
– | dependent on the presence of GKRP | 5 ± 0.6 | O=P(O)(O)OC[C@@H](O)[C@@H](O)[C@H](O)[C@@H](O)CO [S6P, sorbitol 6-phosphate] | –
– | – | – | Cc1ccc(C(=O)Nc2ccc(S(=O)(=O)O)c3cc(S(=O)(=O)O)cc(S(=O)(=O)O)c23)cc1NC(=O)c1cccc(NC(=O)Nc2cccc(C(=O)Nc3cc(C(=O)Nc4ccc(S(=O)(=O)O)c5cc(S(=O)(=O)O)cc(S(=O)(=O)O)c45)ccc3C)c2)c1 [suramin sodium salt] | inhibitors of the GCK-GKRP interaction
